The values below come from patent US10562912B2 (C&C Research Laboratories, priority 2013, dated 2020).

The IC50 is the concentration that inhibits the measured activity by half. Read a low IC50 as inhibition by little substance.

What all share (format): cell-based
One experiment addresses T1, STAT3 (Homo sapiens, UniProt P40763).
T1 construct: plasmid pSTAT3-TA-luc), which contains a stably operating STAT3 promoter; endogenous in cells
As to the kind of experiment: STAT3 reporter gene assay (luciferase), LNCaP stable cell line (pSTAT3-TA-luc), IL-6 stimulation. The essentials:
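Cytotoxicity was run on a duplicate plate with CellTiter-Glo, while the other plate gave luciferase read-outs from lysed LNCaP pSTAT3-TA-luc reporter cells. Cells were treated with graded compound concentrations plus IL-6 (10 ng/mL final) for 24–48 h in 3% DCC-FBS medium. Unstimulated and stimulated wells served as negative and positive controls.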
On the technique in general: In a reporter assay the amount or activity of a reporter protein is the signal.

A further experiment relates to DU-145. As to the kind of experiment: Cell growth inhibition assay, prostate cancer cell line DU-145. To be noted: Homo sapiens, DU-145 prostate cancer cell line. The essentials:
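Viability by CellTiter-Glo luminescence after 72–96 h of compound dosing at 37° C. under 5% CO2; DU-145 and HCT116 seeded at 3,000 cells/well, SW626 at 5,000 cells/well.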

The subject of the next experiment is LNCaP. Nature of the experiment: Cell growth inhibition assay, prostate cancer cell line LNCaP (medium with 10 ng/mL IL-6). Conditions: Homo sapiens, medium supplemented with 10 ng/mL of IL-6, 10,000 cells/well.

T1 sequence (P40763 whole entry): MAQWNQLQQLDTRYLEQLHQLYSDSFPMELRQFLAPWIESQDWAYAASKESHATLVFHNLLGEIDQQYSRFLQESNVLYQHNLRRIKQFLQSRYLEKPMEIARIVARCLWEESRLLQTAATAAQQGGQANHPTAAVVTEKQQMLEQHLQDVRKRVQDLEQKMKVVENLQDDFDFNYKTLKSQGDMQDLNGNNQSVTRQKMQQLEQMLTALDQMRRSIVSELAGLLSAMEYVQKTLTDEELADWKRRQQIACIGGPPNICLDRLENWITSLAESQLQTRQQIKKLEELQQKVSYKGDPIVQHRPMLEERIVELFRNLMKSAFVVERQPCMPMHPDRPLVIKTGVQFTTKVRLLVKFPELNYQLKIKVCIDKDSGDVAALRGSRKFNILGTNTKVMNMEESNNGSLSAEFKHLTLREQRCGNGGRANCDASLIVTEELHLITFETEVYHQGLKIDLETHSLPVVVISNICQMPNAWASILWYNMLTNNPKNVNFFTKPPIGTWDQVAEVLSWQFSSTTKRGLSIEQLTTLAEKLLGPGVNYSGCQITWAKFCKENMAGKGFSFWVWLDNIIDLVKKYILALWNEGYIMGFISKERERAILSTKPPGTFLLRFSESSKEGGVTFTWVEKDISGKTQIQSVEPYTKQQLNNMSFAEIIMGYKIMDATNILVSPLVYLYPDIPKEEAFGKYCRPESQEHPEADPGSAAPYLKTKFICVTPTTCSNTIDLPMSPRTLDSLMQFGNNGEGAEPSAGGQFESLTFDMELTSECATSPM

Turning to `CS(=O)(=O)Nc1cc2cc(C(=O)Nc3cc(Cl)cc(Oc4ccc(Cl)cc4)c3)sc2cc1Cl` [Example 449, 6-chloro-N-(3-chloro-5-(4-chlorophenoxy)phenyl)-5-(methylsulfonamido)benzo[b]thiophene-2-carboxamide], the IC50 came out at 0.024 µM on STAT3, 0.01 µM in the experiment with DU-145 and 0.022 µM with LNCaP.
In the case of `CS(=O)(=O)Nc1ccc2sc(C(=O)Nc3cc(Cl)cc(Oc4cccc(OC(F)(F)F)c4)c3)cc2c1` [Example 450, N-(3-chloro-5-(3-(trifluoromethoxy)phenoxy)phenyl)-5-(methylsulfonamido)benzo[b]thiophene-2-carboxamide], the IC50 worked out at 0.1 µM against STAT3, 0.06 µM in the experiment with DU-145 and 0.099 µM with LNCaP.
Taken in the same sequence, the figures for `CS(=O)(=O)Nc1ccc2sc(C(=O)Nc3cc(Cl)cc(Oc4ccc(C#N)cc4)c3)cc2c1` [Example 451, N-(3-chloro-5-(4-cyanophenoxy)phenyl)-5-(methylsulfonamido)benzo[b]thiophene-2-carboxamide] were 0.14 µM, 0.19 µM and 0.51 µM.
For the compound `CC(C)Oc1cc(Oc2cc(Cl)cc(NC(=O)c3cc4cc(NS(C)(=O)=O)ccc4s3)c2)cc(OC(F)(F)F)c1` [Example 452, N-(3-chloro-5-(3-isopropoxy-5-(trifluoromethoxy)phenoxy)phenyl)-5-(methylsulfonamido)benzo[b]thiophene-2-carboxamide], the figures for the IC50 against STAT3, in the experiment on DU-145 and in the experiment with LNCaP were 0.079 µM, 0.027 µM and 0.33 µM, respectively.
Consider `CS(=O)(=O)Nc1cc2cc(C(=O)Nc3cc(Cl)cc(Oc4ccc(Cl)cc4)c3)sc2cc1Br` [Example 453, 6-bromo-N-(3-chloro-5-(4-chlorophenoxy)phenyl)-5-(methylsulfonamido)benzo[b]thiophene-2-carboxamide], for which the IC50 against STAT3 turned out to be 0.022 µM; in the experiment with DU-145, 0.018 µM; in the experiment with LNCaP it was 0.35 µM.
Regarding `CS(=O)(=O)Nc1ccc2sc(C(=O)Nc3cc(Cl)cc(Oc4ccc(OC(F)(F)F)cc4)c3)cc2c1` [Example 454, N-(3-chloro-5-(4-(trifluoromethoxy)phenoxy)phenyl)-5-(methylsulfonamido)benzo[b]thiophene-2-carboxamide], the IC50 against STAT3 was determined as 0.12 µM; in the experiment on DU-145 it was 0.059 µM; with LNCaP, 0.83 µM.
Take `CS(=O)(=O)Nc1ccc2sc(C(=O)Nc3cc(Cl)cc(Oc4cccc(C(F)(F)F)c4)c3)cc2c1` [Example 455, N-(3-chloro-5-(3-(trifluoromethyl)phenoxy)phenyl)-5-(methylsulfonamido)benzo[b]thiophene-2-carboxamide]: the figures for the IC50 against STAT3, with DU-145 and with LNCaP were 0.19 µM, 0.19 µM and 0.22 µM, respectively.
On to `CS(=O)(=O)Nc1ccc2sc(C(=O)Nc3cc(Cl)cc(Oc4cccc(Cl)c4)c3)cc2c1` [Example 456, N-(3-chloro-5-(3-chlorophenoxy)phenyl)-5-(methylsulfonamido)benzo[b]thiophene-2-carboxamide], for which the values for the IC50 against STAT3, with DU-145 and with LNCaP were 0.19 µM, 0.25 µM and 0.3 µM, respectively.
In the same order, the values of `COc1cccc(Oc2cc(Cl)cc(NC(=O)c3cc4cc(NS(C)(=O)=O)ccc4s3)c2)c1` [Example 457, N-(3-chloro-5-(3-methoxyphenoxy)phenyl)-5-(methylsulfonamido)benzo[b]thiophene-2-carboxamide] are 0.28 µM, 0.44 µM and 0.37 µM.
Consider `CS(=O)(=O)Nc1ccc2sc(C(=O)Nc3cc(Cl)cc(Oc4cc(Cl)cc(C#N)c4)c3)cc2c1` [Example 458, N-(3-chloro-5-(3-chloro-5-cyanophenoxy)phenyl)-5-(methylsulfonamido)benzo[b]thiophene-2-carboxamide], for which the IC50 worked out at 0.25 µM against STAT3, 0.17 µM with DU-145 and 0.33 µM with LNCaP.
In the same order, the values of `CS(=O)(=O)Nc1ccc2sc(C(=O)Nc3cc(Cl)cc(Oc4cccc(C#N)c4)c3)cc2c1` [Example 459, N-(3-chloro-5-(3-cyanophenoxy)phenyl)-5-(methylsulfonamido)benzo[b]thiophene-2-carboxamide] are 0.36 µM, 0.59 µM and 0.79 µM.
For `CS(=O)(=O)Nc1ccc2sc(C(=O)Nc3cc(Cl)cc(Oc4ccc(F)c(F)c4)c3)cc2c1` [Example 460, N-(3-chloro-5-(3,4-difluorophenoxy)phenyl)-5-(methylsulfonamido)benzo[b]thiophene-2-carboxamide], the IC50 at STAT3 was 0.15 µM; with DU-145 it was 0.13 µM; in the experiment with LNCaP, 0.23 µM.
For the compound `CS(=O)(=O)Nc1ccc2sc(C(=O)Nc3cc(Cl)cc(Oc4ccc(F)c(Cl)c4)c3)cc2c1` [Example 461, N-(3-chloro-5-(3-chloro-4-fluorophenoxy)phenyl)-5-(methylsulfonamido)benzo[b]thiophene-2-carboxamide], the IC50 was found to be 0.14 µM at STAT3, 0.11 µM with DU-145 and 0.24 µM in the experiment with LNCaP.
With `CS(=O)(=O)Nc1ccc2sc(C(=O)Nc3cc(Cl)cc(Oc4ccc(Cl)cc4Cl)c3)cc2c1` [Example 462, N-(3-chloro-5-(2,4-dichlorophenoxy)phenyl)-5-(methylsulfonamido)benzo[b]thiophene-2-carboxamide], the IC50 against STAT3 was found to be 0.13 µM; in the experiment with DU-145 it was 0.13 µM; in the experiment on LNCaP it was 0.33 µM.
Regarding `CS(=O)(=O)Nc1ccc2sc(C(=O)Nc3cc(Cl)cc(Oc4cc(F)cc(F)c4)c3)cc2c1` [Example 463, N-(3-chloro-5-(3,5-difluorophenoxy)phenyl)-5-(methylsulfonamido)benzo[b]thiophene-2-carboxamide], the IC50 against STAT3 was 0.19 µM; with DU-145, 0.15 µM; in the experiment on LNCaP it was 0.27 µM.
Consider `CS(=O)(=O)Nc1ccc2sc(C(=O)Nc3cc(Cl)cc(Oc4cc(Cl)cc(Cl)c4)c3)cc2c1` [Example 464, N-(3-chloro-5-(3,5-dichlorophenoxy)phenyl)-5-(methylsulfonamido)benzo[b]thiophene-2-carboxamide], for which the IC50 against STAT3 came out at 0.17 µM; in the experiment on DU-145 it was 0.16 µM; with LNCaP, 0.31 µM.
For the compound `CS(=O)(=O)Nc1ccc2sc(C(=O)Nc3cc(Cl)cc(Oc4ccc(C(F)(F)F)cc4)c3)cc2c1` [Example 465, N-(3-chloro-5-(4-(trifluoromethyl)phenoxy)phenyl)-5-(methylsulfonamido)benzo[b]thiophene-2-carboxamide], the IC50 is 0.12 µM at STAT3, 0.048 µM in the experiment on DU-145 and 0.063 µM in the experiment with LNCaP.
In the case of `CS(=O)(=O)Nc1ccc2sc(C(=O)Nc3cc(Cl)cc(Oc4ccc(Cl)c(F)c4)c3)cc2c1` [Example 466, N-(3-chloro-5-(4-chloro-3-fluorophenoxy)phenyl)-5-(methylsulfonamido)benzo[b]thiophene-2-carboxamide], the IC50 at STAT3 was 0.12 µM; in the experiment with DU-145, 0.063 µM; in the experiment with LNCaP it was 0.079 µM.
Regarding `CS(=O)(=O)Nc1ccc2sc(C(=O)Nc3cc(Cl)cc(Oc4cc(Cl)cc(OC(F)(F)F)c4)c3)cc2c1` [Example 467, N-(3-chloro-5-(3-chloro-5-(trifluoromethoxy)phenoxy)phenyl)-5-(methylsulfonamido)benzo[b]thiophene-2-carboxamide], the IC50 against STAT3 was 0.22 µM; in the experiment on DU-145, 0.048 µM; with LNCaP it was 0.039 µM.
Turning to `CS(=O)(=O)Nc1ccc2sc(C(=O)Nc3cc(Cl)cc(Oc4ccc(Cl)c(OC(F)(F)F)c4)c3)cc2c1` [Example 468, N-(3-chloro-5-(4-chloro-3-(trifluoromethoxy)phenoxy)phenyl)-5-(methylsulfonamido)benzo[b]thiophene-2-carboxamide], the figures for the IC50 against STAT3, with DU-145 and in the experiment on LNCaP were 0.17 µM, 0.028 µM and 0.04 µM, respectively.
On to `CS(=O)(=O)Nc1ccc2sc(C(=O)Nc3cc(Cl)cc(Oc4cc(F)cc(Cl)c4)c3)cc2c1` [Example 469, N-(3-chloro-5-(3-chloro-5-fluorophenoxy)phenyl)-5-(methylsulfonamido)benzo[b]thiophene-2-carboxamide], for which the IC50 against STAT3 stood at 0.36 µM; in the experiment on DU-145 it was 0.086 µM; with LNCaP, 0.12 µM.
As for `CS(=O)(=O)Nc1ccc2sc(C(=O)Nc3cc(Cl)cc(Oc4ccc(F)c(OC(F)(F)F)c4)c3)cc2c1` [Example 470, N-(3-chloro-5-(4-fluoro-3-(trifluoromethoxy)phenoxy)phenyl)-5-(methylsulfonamido)benzo[b]thiophene-2-carboxamide], the IC50 against STAT3 is 0.32 µM; in the experiment on DU-145, 0.043 µM; with LNCaP it was 0.067 µM.
Take `CS(=O)(=O)Nc1cc2cc(C(=O)Nc3cc(Cl)cc(Oc4nccs4)c3)sc2cc1Cl` [Example 471, 6-chloro-N-(3-chloro-5-(thiazol-2-yloxy)phenyl)-5-(methylsulfonamido)benzo[b]thiophene-2-carboxamide]: the IC50 at STAT3 worked out at 0.075 µM; with DU-145, 0.049 µM; in the experiment on LNCaP, 0.11 µM.
In the same order, the values of `CS(=O)(=O)Nc1cc2cc(C(=O)Nc3cc(Cl)cc(Oc4cncs4)c3)sc2cc1Cl` [Example 472, 6-chloro-N-(3-chloro-5-(thiazol-5-yloxy)phenyl)-5-(methylsulfonamido)benzo[b]thiophene-2-carboxamide] are 0.1 µM, 0.13 µM and 0.37 µM.
In the case of `CS(=O)(=O)Nc1cc2cc(C(=O)Nc3cc(Cl)cc(Oc4ccc(Cl)s4)c3)sc2cc1Cl` [Example 473, 6-chloro-N-(3-chloro-5-((5-chlorothiophen-2-yl)oxy)phenyl)-5-(methylsulfonamido)benzo[b]thiophene-2-carboxamide], the figures for the IC50 at STAT3, in the experiment with DU-145 and in the experiment on LNCaP were 0.1 µM, 0.015 µM and 0.015 µM, respectively.
